Tests used:
[1] = system: barnyardgrass; test: Test A pre-/postemergence herbicide test; type: in vivo, Echinochloa crus-galli
How it was run: (§1)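 Both application timings were run together: directed soil spray over freshly planted seeds in sandy loam, and runoff spray onto 2–10 cm seedlings. Evaluation after ~10 days in greenhouse used a 0–100 visual scale versus untreated controls.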

[2] = system: morningglory; test: Test A pre-/postemergence herbicide test; type: in vivo, Ipomoea spp.
How it was run: as §1

[3] = system: bermudagrass; test: Test C pre-/postemergence herbicide test; type: in vivo, Cynodon dactylon
How it was run: (§2)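 Emerged plants at the 1- to 4-leaf stage (2–18 cm), or freshly planted seeds, received test chemicals in a non-phytotoxic solvent mixture with surfactant. Response was visually scored against controls after 12 to 14 days in the greenhouse, on a 0 (no effect) to 100 (complete control) scale.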

[4] = system: corn; test: Test C pre-/postemergence herbicide test; type: in vivo, Zea mays
How it was run: as §2

[5] = system: large crabgrass; test: Test C pre-/postemergence herbicide test; type: in vivo, Digitaria sanguinalis
How it was run: as §2

[6] = system: giant foxtail; test: Test C pre-/postemergence herbicide test; type: in vivo, Setaria faberi
How it was run: as §2

[7] = system: kochia; test: Test C pre-/postemergence herbicide test; type: in vivo, Kochia scoparia
How it was run: as §2

[8] = system: morningglory; test: Test C pre-/postemergence herbicide test; type: in vivo, Ipomoea coccinea; set-up: key to Plant response rating, Morningglory: 0 = no effect, 100 = complete control
How it was run: as §2

[9] = system: common ragweed; test: Test C pre-/postemergence herbicide test; type: in vivo, Ambrosia elatior; set-up: key to Plant response rating, Ragweed: 0 = no effect, 100 = complete control
How it was run: as §2

[10] = system: common (oilseed) sunflower; test: Test C pre-/postemergence herbicide test; type: in vivo, Helianthus annuus; conditions: preemergence
How it was run: as §2

[11] = system: rice; test: Test C flooded paddy test; type: in vivo, Oryza sativa
How it was run: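 Injury scored visually against controls on a 0 (no effect) to 100 (complete control) scale, 12 to 14 days after treatment in greenhouse. Flooded paddy plants treated at 2-leaf stage; postemergence plants at 1- to 4-leaf stage, 2 to 18 cm tall.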

[12] = system: smallflower umbrella sedge; test: Test C flooded paddy test; type: in vivo, Cyperus difformis
[13] = system: ducksalad; test: Test C flooded paddy test; type: in vivo, Heteranthera limosa
[14] = Postemergence, 500 g ai/ha, 0 to 100 scale, 0 no effect, 100 complete control
[15] = Postemergence, 2000 g ai/ha, 0 to 100 scale, 0 no effect, 100 complete control
[16] = Preemergence, 500 g ai/ha, visual rating, 0 to 100 scale (0 no effect, 100 complete control)
[17] = Preemergence, 2000 g ai/ha, visual rating, 0 to 100 scale (0 no effect, 100 complete control)
[18] = 125 g ai/ha, scale 0 (no effect) to 100 (complete control), visual, 12 to 14 days, preemergence
[19] = 250 g ai/ha, scale 0 to 100 (0 no effect, 100 complete control), visual, 12 to 14 days, preemergence
[20] = Postemergence, 250 g ai/ha, scale 0 to 100, 0 no effect, 100 complete control
[21] = postemergence, 125 g ai/ha, scale 0 to 100
[22] = postemergence, 62 g ai/ha, scale 0 to 100
[23] = 62 g ai/ha, scale 0 to 100 (0 no effect, 100 complete control)
[24] = 125 g ai/ha, scale 0 to 100 (0 no effect, 100 complete control)
[25] = 250 g ai/ha, scale of 0 to 100, 0 is no effect, 100 is complete control
[26] = 500 g ai/ha, visual rating after 12 to 14 days, scale 0 to 100 (0 no effect, 100 complete control)

`CCn1nc(C(C)(C)C)cc1C(=O)Nc1cccc(C#N)c1` [Compound 139] was tested, and the “Barnyardgrass plant response rating” value [1, 14] was 35, the “Plant response rating, Barnyardgrass” value [1, 15] was 60 and the “Barnyardgrass plant response rating” value [1, 16] was 40. The “Barnyardgrass plant response rating” value [1, 17] was 60, the “Morningglory plant response rating” value [2, 14] was 20 and the “Plant response rating, Morningglory” value [2, 15] was 35. The “Morningglory plant response rating” value [2, 16] was 30, the “Morningglory plant response rating” value [2, 17] was 85 and the “Plant response rating, Bermudagrass” value ([3]; 31 g ai/ha, scale 0 to 100, 0 no effect, 100 complete control, last section of Table C (species set of preemergence test)) was 10. For the same molecule, the “Plant response rating (0 = no effect, 100 = complete control), Bermudagrass” value ([3]; 62 g ai/ha, preemergence) was 60, the “Plant response rating, Bermudagrass” value [3, 18] was 90 and the “Plant response rating, Bermudagrass” value [3, 19] was 95. For the same molecule, the “Plant response rating, Bermudagrass” value [3, 20] was 0, the “Plant response rating, Bermudagrass” value [3, 21] was 0 and the “Plant response rating, Bermudagrass” value ([3]; postemergence, 31 g ai/ha, scale 0 to 100) was 0. The “Plant response rating, Bermudagrass” value [3, 22] was 0, the “Plant response rating (0 = no effect, 100 = complete control), Corn” value ([4]; 62 g ai/ha, preemergence) was 0 and the “Plant response rating, Corn” value [4, 18] was 0. For the same molecule, the “Plant response rating, Corn” value [4, 19] was 15, the “Plant response rating, Corn” value [4, 20] was 10 and the “Plant response rating, Corn” value [4, 21] was 10. For the same molecule, the “Plant response rating, Corn” value [4, 22] was 0, the “Plant response rating (0 = no effect, 100 = complete control), Crabgrass, Large” value ([5]; 62 g ai/ha, preemergence) was 40 and the “Plant response rating, Crabgrass, Large” value [5, 18] was 100. The “Plant response rating, Crabgrass, Large” value [5, 19] was 100, the “Plant response rating, Crabgrass, Large” value [5, 20] was 0 and the “Plant response rating, Crabgrass, Large” value [5, 21] was 0. For the same molecule, the “Plant response rating, Crabgrass, Large” value [5, 22] was 0, the “Plant response rating (0 = no effect, 100 = complete control), Foxtail, Giant” value ([6]; 62 g ai/ha, preemergence) was 40 and the “Plant response rating, Foxtail, Giant” value [6, 18] was 80. The “Plant response rating, Foxtail, Giant” value [6, 19] was 95, the “Plant response rating, Foxtail, Giant” value [6, 20] was 10 and the “Plant response rating, Foxtail, Giant” value [6, 21] was 0. The “Plant response rating, Foxtail, Giant” value [6, 22] was 0, the “Plant response rating (0 = no effect, 100 = complete control), Kochia” value ([7]; 62 g ai/ha, preemergence) was 100 and the “Plant response rating, Kochia” value [7, 18] was 100. For the same molecule, the “Plant response rating, Kochia” value [7, 20] was 50, the “Plant response rating, Kochia” value [7, 21] was 50 and the “Plant response rating, Kochia” value [7, 22] was 50. For the same molecule, the “Plant response rating (0 = no effect, 100 = complete control), Morningglory” value ([8]; 62 g ai/ha, preemergence) was 0, the “Plant response rating, Morningglory” value [8, 18] was 10 and the “Plant response rating, Morningglory” value [8, 20] was 60. For the same molecule, the “Plant response rating, Morningglory” value [8, 21] was 50, the “Plant response rating, Morningglory” value [8, 22] was 0 and the “Plant response rating (0 = no effect, 100 = complete control), Ragweed” value ([9]; 62 g ai/ha, preemergence) was 50. The “Plant response rating, Ragweed” value [9, 18] was 50, the “Plant response rating, Ragweed” value [9, 20] was 45 and the “Plant response rating, Ragweed” value [9, 21] was 45. For the same molecule, the “Plant response rating, Ragweed” value [9, 22] was 0, the “Plant response rating (0 = no effect, 100 = complete control), Sunflower” value ([10]; 62 g ai/ha) was 0 and the “Plant response rating, Sunflower” value ([10]; 125 g ai/ha, scale 0 (no effect) to 100 (complete control), visual, 12 to 14 days) was 10. The “Rice plant response rating” value [11, 23] was 0, the “Rice plant response rating” value [11, 24] was 35 and the “Rice plant response rating” value [11, 25] was 45. For the same molecule, the “Plant response rating, Rice” value [11, 26] was 60, the “Sedge, Umbrella plant response rating” value [12, 23] was 75 and the “Sedge, Umbrella plant response rating” value [12, 24] was 80. The “Sedge, Umbrella plant response rating” value [12, 25] was 85, the “Plant response rating, Sedge, Umbrella” value [12, 26] was 85 and the “Ducksalad plant response rating” value [13, 23] was 0. The “Ducksalad plant response rating” value [13, 24] was 70, the “Ducksalad plant response rating” value [13, 25] was 85 and the “Plant response rating, Ducksalad” value [13, 26] was 90.

From US20060069132A1, “Azolecarboxamide herbicides” (priority 2004, published 2006)
